According to patent publication US7335722B2, “Peptides used as angiotensin converting enzyme inhibitor and preparation process thereof” (Food Industry Research and Development Institute, priority 1999, dated 2008):
pIC50: −log10 of the molar value.

Test system: ACE
Experiment: ACE inhibitory activity (IC50) of the isolated peptides, method not specified
Assay type: biochemical
Procedure: The five more apparent peaks in FIG. 4 are designated as A3-B4-C6-D1 to D5. The sequences of them are determined by sequence-determining machine. Five short-chain peptides, Val-Leu-Pro (VLP), Ilu-Leu-Pro (ILP), Val-Leu-Tyr (VLY), Val-Leu-Pro-Pro (VLPP) and Ilu-Leu-Pro-Pro (ILPP) are obtained. The ACE inhibitory activity of them (IC50) is determined.

Row | pIC50 | Substance
1 | 3.76 | Ilu-Leu-Pro-Pro (ILPP)
2 | 4.01 | VLPP [Val-Leu-Pro-Pro]
